Test system: Store-bought Strawberries
Assay: Strawberry shelf-life / spoilage test after ascaroside treatment
Details: berries dipped into 100 nM water solution
Procedure: Example 1: treatment of fruit with ascarosides extends shelf-life/delays spoilage. Store-bought Strawberries were treated with ascaroside (ascr #18) by dipping the berries into a 100 nM water solution of the ascaroside or a mock solution lacking ascaroside. Five berries from each treatment group were placed in glass dishes and left uncovered on a table indoors at ambient temperature and monitored for one week. Fruit weight was measured at 0, 1, 3, 4, 5, 6, and 7 days post-treatment. The ascaroside treated berries retained approximately 25% more of their original mass than the untreated group indicating a reduced spoilage rate and potential for increased shelf life. […] Example 2: treatment of fruit with coating compositions containing ascarosides. Freshly harvested, non-coated, apples were obtained from a supermarket. These were washed and experimental coatings were applied.

Q: How did the “fruit quality by appearance (photographs, FIG. 1b)” value (photographs 0, 3 and 5 days post-treatment, vs untreated fruit) turn out when `CC1OC(O[C@H](C)CCCCCCCCC(=O)O)C(O)CC1O` (some centres unmarked) [ascr #18] was run?
A: Its value is “maintained higher quality than the untreated fruit”.

Q: And the “original mass retained, more than the untreated group (normalized fruit mass, FIG. 1a)” value (uncovered at ambient temperature, monitored for seven days, vs mock solution)?
A: Its value is “approximately 25%”.
